PMC7827481, “Development of A Continuous Fluorescence-Based Assay for N-Terminal Acetyltransferase D” (International Journal of Molecular Sciences, 2021)

How the values were obtained:
[1] = biological target: T1, N-terminal acetyltransferase D (NatD) (Homo sapiens, UniProt Q86UY6); test: ThioGlo4 fluorescence acetyltransferase assay; type: biochemical
T1 construct: gene NAA40; full-length human NatD, untagged

[2] = biological target: T1, N-terminal acetyltransferase D (NatD); test: ThioGlo4 fluorescence acetyltransferase assay; confirmed by MALDI-MS (IC50 […]); type: biochemical
[3] = biological target: T1, N-terminal acetyltransferase D (NatD); test: MALDI-MS acetylation inhibition at […] (also […], […] in fluorescence assay); type: biochemical
[4] = biological target: T1, N-terminal acetyltransferase D (NatD); test: ThioGlo4 fluorescence acetyltransferase assay; confirmed by MALDI-MS ([…] at […]); type: biochemical
[5] = tested on: CC(=O)SCCNC(=O)CCNC(=O)[C@H](O)C(C)(C)COP(=O)(O)OP(=O)(O)OC[C@H]1O[C@@H](n2cnc3c(N)ncnc32)[C@H](O)[C@@H]1OP(=O)(O)O; test: purified protein; details: AcCoA binding site

## C[C@H](NC(=O)/C(C#N)=C/c1ccc(O)c(O)c1)c1ccccc1 [AG 835]
[1]
  IC50: 38 ± 2 µM

## O=C(O)C1=CC(=C(c2ccc(O)c(C(=O)O)c2)c2ccc(O)c(C(=O)O)c2)C=CC1=O [P1401K09, aurintricarboxylic acid]
[2]
  IC50: 1.5 ± 0.1 µM

## Nc1c(S(=O)(=O)O)cc(Nc2ccc(Nc3nc(Cl)nc(Nc4cccc(S(=O)(=O)O)c4)n3)c(S(=O)(=O)O)c2)c2c1C(=O)c1ccccc1C2=O [P1404C10, Reactive blue 2]
[3]
  inhibition at 10 µM: 100%

## C[C@@H](NC(=O)/C(C#N)=C/c1ccc(O)c(O)c1)c1ccccc1 [P1404L15, tyrphostin B44(-)]
[4]
  IC50: 63 ± 4 µM

## N-terminal acetyltransferase D (NatD) (Homo sapiens)
[5]
  Km: 0.5 ± 0.06 µM
